Measurements from patent US20130225694A1, “COMPOSITIONS AND METHODS OF INHIBITING RETINAL DEGENERATION” (Oklahoma Medical Research Foundation, priority 2012, published 2013).

Assays:
[1] = system: retinal retinol dehydrogenases (RDHs); assay: Assay for retinal RDH activity in mouse retinal microsomes; format: biochemical; settings: 2 mM PBN, NADPH-dependent reduction of all-trans-retinal
Description: Assay for retinal RDH activity—The effect of PBN on retinal dehydrogenase (RDH) enzymes was determined in vitro using mouse retinal microsomes. […] Homogenates were centrifuged at 10,000 g for 10 minutes at 4° C. The resulting supernatants were then centrifuged at 100,000 g for 1 hour at 4° C., and microsomal pellets were resuspended in storage buffer [50 mM Tris-Cl (pH 7.2), 1 mM EDTA, 20% glycerol, 1 mM dithiothreitol, and the protease inhibitors described above]. Protein concentrations were measured, and microsomal fractions were stored at −80° C. after snap freezing in liquid nitrogen.
Reactions were carried out in 1 ml reaction buffer [100 mM Tris-HCl (pH 7.2), 200 mM NaCl, 1 mM dithiothreitol, 2 mg/ml bovine serum albumin, and 1% (v/v) glycerol] with 5 μg of microsomes, 0 or 75 μM of NADPH, 0 or 2 mM PBN, and increasing concentrations of the substrate all-trans-retinal. […] Retinoids were extracted with 2 volumes of hexane and analyzed by HPLC. […] The peaks of all-trans-retinal (substrate) and all-trans-retinol (product of the reaction) were identified and quantified by comparison with pure retinoid isomeric standards. […] For each condition the non-enzymatic conversion of all-trans-retinal to all-trans-retinol measured in absence of NADPH was subtracted from the conversion obtained with NADPH to determine the NADPH-dependant activity of retinal RDHs. […]

rhodopsin = assay: Rhodopsin regeneration after bleach in rats, IP nitrone; format: in vivo, rat
Description: FIG. 10 graphically illustrates the effects of three PBN analogs of rhodopsin regeneration. Rhodopsin content was measured as nmole/retina following the procedure as in Mandal et al. (J Biol. Chem. 2011. 286 (37):32491-501). After injection with PBN derivatives or vehicles (saline), rats were left in room light for 2 hours (light adapted or LA) and then moved to dark. At 2.5 hours dark adaptation (DA), retinas were harvested. DA-Control, Dark adapted (12 h) control retina without any treatment to show normal rhodopsin content.
Measurement of rhodopsin regeneration—To measure the effect of PBN on the rate of rhodopsin regeneration, dark-adapted rats were injected intraperitoneally with PBN (50 mg/kg) or PBS 0.5 hour prior to a 2 hour bleach in room light (˜400 lux). Immediately following the bleach (time=0 minutes), a group of PBN- and vehicle-treated rats were killed, and retinas were removed and snap frozen. The remaining rats were dark-adapted, and retinas were collected under dim red light at 45, 90, and 180 minutes after the bleach.
Rhodopsin measurements were performed as described previously (2,36) with slight modification. Briefly, under dim red light, each retina was homogenized in 450 μl of buffer containing 10 mM Tris-HCl (pH 7.4), 150 mM NaCl, 1 mM EDTA, 2% (w/v) octylglucoside, and 50 mM hydroxylamine. Homogenates were centrifuged at 16,000 g, and soluble lysates were scanned from 270-800 nm in a spectrophotometer (Ultrospec 3000 UV/Vis Spectrophotometer, GE Healthcare, Piscataway, N.J.). Samples were then bleached under room light for 10 minutes and scanned again. The difference spectra at 500 nm between pre- and post-bleached samples were used to determine rhodopsin content using a molar extinction coefficient of […] (37). The values were normalized to the total lysate volume, and data are presented as rhodopsin content/retina.

rod photoreceptors = assay: Recovery of rod photoresponses after bleaching (dark adaptation ERG) in rats; format: in vivo, rat; settings: 50 mg/kg IP
Description: Possible defects in the visual cycle were analyzed by measuring the time course of dark adaptation (recovery of rod photoreceptor sensitivity) following a bleaching light exposure. Rats were fully dark-adapted and injected intraperitoneally with PBN (50 mg/kg) or saline. Full-field scotopic ERGs for both eyes were recorded after 3 hours of PBN injection. A single test flash of 2.3 log cd·s/m^2 was presented to elicit the rod a-wave response under fully dark-adapted conditions. Rats were then exposed to a steady field of log 2.3 cd·s/m^2 for 2 minutes in the Ganzfeld dome to bleach rod photoreceptors. Immediately following the bleaching period (time=0 minutes) and every 10 minutes thereafter (time=10, 20, 30, 40, 50, and 60 minutes), the same test flash of 2.3 log cd·s/m^2 was presented. The a-wave responses at the indicated times after bleaching were normalized to the initial dark-adapted response for each rat.
Effect of PBN on the rate of recovery of rod photoresponses: dark adaptation ERG—The damaging effect of bright light requires a functional rhodopsin photopigment (23). It is well established that PBN protects against light damage (1), and the inventors previously speculated that PBN, as part of its protective mechanism, might down-regulate rhodopsin regeneration rate (2). […]

mouse retina = assay: Light-damage protection by topical PBN eye drops in mice (ERG); format: in vivo; settings: 10% PBN eye drop in V1 or V2; 3,000 lux 6 h; ERG five days after
Description: After topical application of PBN, light-damage was done at 3,000 lux for 6 h. ERG response were recorded five days after light-damage. Two vehicles were used to solubilize and make 10% PBN eye drop formulation for topical application on mouse eye, vehicle 1 (V-1) and vehicle 2 (V-2).
After topical application of PBN, light-damage was done at 3,000 lux for 6 h. ERG responses were recorded five days after light-damage. Two vehicles were used to solubilize and make the 10% PBN eye drop formulation for topical application on mouse eyes, vehicle 1 (V-1) and vehicle 2 (V-2). […] Vehicle 1 contains 10 mM potassium borate/bicarbonate buffer (pH 7.2), glycerine, 1.0%, carboxymethylcellulose 0.3%, benzyl alcohol 0.3%, and 30% 1-methyl-2-pyrrolidinone (a solubilizing enhancer, a.k.a., N-Methyl-2-Pyrrolidone—“NMP”). Vehicle 2 contains 137 mM sodium chloride, 2.7 mM potassium chloride in 10 mM phosphate buffer (pH 7.4), and 30% 1-methyl-2-pyrrolidinone.

## CC(C)(C)/[N+]([O-])=C/c1ccccc1 [Compound 1, α-phenyl-N-tert-butyl nitrone]
[1]
  inhibition of retinal RDH activity: did not inhibit
rhodopsin; 50 mg/kg IP, 2.5 hours in the dark (FIG. 10)
  effect on rhodopsin regeneration: blocked rhodopsin regeneration significantly
rhodopsin; 50 mg/kg IP, 45 minutes in darkness after 2 h bleach
  rhodopsin regenerated after bleach: virtually no rhodopsin was regenerated
rhodopsin; 50 mg/kg IP, dark adaptation for 3 hours after 2 h bleach
  bleachable rhodopsin recovered: ~30%
rhodopsin; Rattus norvegicus, rats, 50 mg/kg IP, 2 h room light then 2.5 h dark adaptation
  inhibition at 50 mg/kg: 83%
rhodopsin; fully dark-adapted rats, mean±SEM
  rhodopsin content of rats maintained in darkness: 1.38±0.14 nmol/eye
Rod photoreceptors; 2.3 log cd·s/m^2 test flash before bleach, n=4
  fully dark-adapted a-wave response: −441.5±70.66 μV
Rod photoreceptors; 40 minutes after the bleaching illumination
  recovery of the initial fully dark-adapted rod response: 25%
Mouse retina
  rod function (scotopic A-wave) after light-damage: significant restoration of rod function
